Data published in patent US20180185347A1, “TETRAHYDROCYCLOPENTA[B]INDOLE COMPOUNDS AND PHOSPHODIESTERASE INHIBITORS FOR THE TREATMENT OF THE SIGNS AND SYMPTOMS OF BHP” (Transition Therapeutics (Ireland 2) Limited, priority 2016, published 2018).
“Also recorded” adds a separate entry of the source.

Legend:
orchidectomized rats [1] = assay: Levator ani / bulbocavernous muscle weight in delayed ORX rat model; type: in vivo
Description: Results are plotted as means±SE.
Following the androgen deficiency in the ORX model, the Levator ani- and bulbocavernous muscle weights decreased in size.

PSA levels = assay: PSA in healthy subjects (Study GPBC, Phase 1); type: in vivo, human
Description: The results of this study are illustrated in FIG. 6.

orchidectomized rats [2] = assay: Prostate and seminal vesicle weight in delayed ORX rat model (SV/Prostate risk); conditions: for prostate or seminal vesical weights: delayed ORX rats, 2 or 8 weeks, doses up to 20-30 mg/kg
Description: Orchidectomized (ORX) and sham-operated Wistar male rats were used (orchidectomized at 8 weeks of age and allowed to waste for 4 weeks). […] Rats were randomized and placed into treatment groups (n=6) based on body weight. Route of administration for all groups except testosterone enanthate (TE was given sub-cutaneously) was oral. At the end of 2 weeks of daily rats were euthanized, weighed & tissue harvested. Levator ani, prostates, and seminal vesicles were collected from each animal. Results are plotted as means±SE.

[3] = QT / ECG assessment in clinical studies; type: in vivo, human; conditions: Study GPEC
dogs = assay: Dog toxicology program: prostate weight and atrophy; type: in vivo; design: key to Prostate weight (mean % decrease): “”: no effect observed; conditions: for Prostate weight (mean % decrease): dog
[4] = Study GPBA single oral dose pharmacokinetics; conditions: human, in vivo, healthy subjects; for Cmax: geometric mean; for Tmax: median
[5] = Clinical body composition and muscle power; type: in vivo, human
Description: The Phase 2 Study for ED also included exploratory measures for lower extremity muscle strength and power, LBM and fat mass. […] The results are illustrated in FIGS. 12, 13, and 14.

[6] = Study GPEC, 12 weeks, 5 mg + 5 mg tadalafil compared with 10 mg tadalafil

## CC(C)OC(=O)N[C@H]1Cc2c(n(Cc3ccccn3)c3ccc(C#N)cc23)C1 [compound of Formula II, (S)-(7-cyano-4-pyridin-2-ylmethyl-1,2,3,4-tetrahydro-cyclopenta[b]indol-2-yl)-carbamic acid isopropyl ester]
Orchidectomized rats [1]; Rattus norvegicus, read-out: ED50 for the levator ani muscle
  ED50: 1 to 3 mg/kg
Orchidectomized rats [1]; delayed ORX rat, 8 weeks, 1 to 3 mg/kg/day
  Levator ani- and bulbocavernous muscle weights: increased significantly
PSA levels; Study GPBC, healthy subjects, 1 mg to 75 mg daily for 28 days
  PSA test, effect on the prostate: neutral to negative effect (decreasing PSA)
PSA levels; clinical studies, any dose level (up to 75 mg doses)
  PSA: No increases in PSA were observed
Orchidectomized rats [2]; 30 mg/kg, the highest dose examined
  changes in the prostate of orchidectomized rats: did not induce changes
Orchidectomized rats [2]
  prostate or seminal vesical weights: had no effect; also recorded: minimal accrual SV/Prostate risk
Orchidectomized rats [2]; listed as TT701
  prostate or seminal vesical weights: minimal accrual SV/Prostate risk
[3]
  ECG data: did not show evidence of clinically meaningful changes
dogs; 1+ months, 3 mg/kg/day
  Prostate weight (mean % decrease): “”
dogs; 1+ months, 30 mg/kg/day
  Prostate weight (mean % decrease): “”
dogs; 1+ months, 150 mg/kg/day
  Prostate weight (mean % decrease): “”
dogs; 6+ months, 3 mg/kg/day
  Prostate weight (mean % decrease): ^↓63%
dogs; 6+ months, 30 mg/kg/day
  Prostate weight (mean % decrease): ^↓66%
dogs; 6+ months, 150 mg/kg/day
  Prostate weight (mean % decrease): ^↓75%
dogs; 12 months, 3 mg/kg/day
  Prostate weight (mean % decrease): ^↓60%
dogs; 12 months, 10 mg/kg/day
  Prostate weight (mean % decrease): ^↓62%
dogs; 12 months, 100 mg/kg/day
  Prostate weight (mean % decrease): ^↓80%
dogs; dogs, by 3 months (so in the source)
  decreases in prostate weight: 60-75%
dogs; normal dogs, six-month treatment period
  decrease in prostate size: 60%
[4]; single oral dose 5 mg
  Cmax: 25.9 ng/mL
  Tmax: 5 h
[4]; single oral dose 25 mg
  Cmax: 123 ng/mL
  Tmax: 4 h
[4]; single oral dose 250 mg
  Cmax: 589 ng/mL
  Tmax: 5 h
[4]; single oral dose 500 mg
  Cmax: 817 ng/mL
  Tmax: 4 h
[4]; single oral dose 1000 mg
  Cmax: 910 ng/mL
  Tmax: 4.5 h
[5]; Study GPBC, healthy subjects, 28 days
  LBM and calf area (by CT): clinically and statistically significant increases
[5]; [6]
  fat body mass and LBM: reduction of fat body mass and an increase (improvement) of LBM
  lower extremity muscle power (stair climb): increased (improved)
[5]; clinical studies in patients with androgen deficiency
  lean body mass: clinically and statistically significant increases
